Earlier results in US20110282046A1, “PROCESS FOR PREPARATION OF CIS-NUCLEOSIDE DERIVATIVE” (priority 2009, published 2011).
Like-named read-outs stand apart in the source and are kept apart here.

Details: for volume of water in which 1 g dissolves: Merck Index Entry no. 8869

SMILES | volume of water in which 1 g dissolves (boiling water) [mL] | volume of water in which 1 g dissolves (cold water) [mL] | solubility in water (water, Merck Index Entry no. 8332) [g in 100 ml water]
O=C(O)CCC(=O)O [Succinic acid] | 1 | 13 | 
O=C(O)c1ccccc1O [salicylic acid] |  |  | 0.20
